Experimental data as given in the RepoRT retention time repository.

Assay: A: acetonitrile + 0.1% formic acid + 10 mM ammonium formate; B: 5% water + 95% acetonitrile + 0.1% formic acid + 10 mM ammonium formate; gradient (min/%B) 0/10 2/10 22/100 27/100 27.1/10
Conditions: stereoisomer not certain

SMILES	LC retention time
CC(C)OC(=O)C(C)(C)Oc1ccc(C(=O)c2ccc(Cl)cc2)cc1 [Fenofibrate]	0.401 min
COc1cc(/C=C/C(=O)O)ccc1O [Ferulic acid]	0.564 min
Cc1cc2nc3c(=O)[nH]c(=O)nc-3n(CC(O)C(O)C(O)COP(=O)(O)OP(=O)(O)OCC3OC(n4cnc5c(N)ncnc54)C(O)C3O)c2cc1C (stereo not given) [Flavin Adenine Dinucleotide]	7.38 min
O=c1cc(-c2ccccc2)oc2ccccc12 [Flavone]	0.425 min
CNCCC(Oc1ccc(C(F)(F)F)cc1)c1ccccc1 (stereo not given) [Fluoxetine]	0.978 min
CC(C)n1c(C=CC(O)CC(O)CC(=O)O)c(-c2ccc(F)cc2)c2ccccc21 (stereo not given) [Fluvastatin]	0.561 min
Nc1nc2ncc(CNc3ccc(C(=O)NC(CCC(=O)O)C(=O)O)cc3)nc2c(=O)[nH]1 (stereo not given) [Folic acid]	5.87 min
Nc1nc2c(c(=O)[nH]1)N(C=O)C(CNc1ccc(C(=O)NC(CCC(=O)O)C(=O)O)cc1)CN2 (stereo not given) [Folinic acid]	5.94 min
COc1ccc(-c2coc3cc(O)ccc3c2=O)cc1 [Formononetin]	0.446 min
NS(=O)(=O)c1cc(C(=O)O)c(NCc2ccco2)cc1Cl [Furosemide]	0.586 min
Nc1nc2c(ncn2COC(CO)CO)c(=O)[nH]1 [Ganciclovir]	4.73 min
O=c1c(-c2ccc(O)cc2)coc2cc(O)cc(O)c12 [Genistein]	0.458 min
COc1ccc(Cl)cc1C(=O)NCCc1ccc(S(=O)(=O)NC(=O)NC2CCCCC2)cc1 [Glibenclamide]	0.446 min
Cc1ccc(S(=O)(=O)NC(=O)NN2CC3CCCC3C2)cc1 (stereo not given) [Gliclazide]	0.423 min
CCC1=C(C)CN(C(=O)NCCc2ccc(S(=O)(=O)NC(=O)NC3CCC(C)CC3)cc2)C1=O (stereo not given) [Glimepiride]	0.44 min
Cc1cnc(C(=O)NCCc2ccc(S(=O)(=O)NC(=O)NC3CCCCC3)cc2)cn1 [Glipizide]	0.463 min
COc1ccc2c(c1)C(=O)N(CCc1ccc(S(=O)(=O)NC(=O)NC3CCCCC3)cc1)C(=O)C2(C)C [Gliquidone]	0.417 min
CCCC(=O)OCC(COC(=O)CCC)OC(=O)CCC [Glycerol Tributyrate]	0.412 min
CCCCCC(=O)OCC(COC(=O)CCCCC)OC(=O)CCCCC [Glycerol Trihexanoate]	0.406 min
CC(CCC(=O)NCC(=O)O)C1CCC2C3C(O)CC4CC(O)CCC4(C)C3CC(O)C12C (stereo not given) [Glycocholic acid]	4.17 min
CC(CCC(=O)NCC(=O)O)C1CCC2C3CCC4CC(O)CCC4(C)C3CC(O)C12C (stereo not given) [Glycodeoxycholic acid]	2.78 min
CC(C)C[C@H](NC(=O)CN)C(=O)O [Glycyl-L-leucine]	5.81 min
NCC(=O)N[C@@H](Cc1ccc(O)cc1)C(=O)O [Glycyl-L-tyrosine]	5.97 min
CC(C)[C@H](NC(=O)CN)C(=O)O [Glycyl-L-valine]	6.02 min

SMILES	LC retention time
NCC(=O)NCC(=O)O [Glycyl-glycine]	7.02 min
CN(C)Cc1c[nH]c2ccccc12 [Gramine]	1.61 min
Cc1ccc(C(C)C)cc2c(C)ccc1-2 [Guaiazulene]	0.402 min
NC(N)=NCC(=O)O [Guanidoacetic acid]	6.12 min
Nc1nc2nc[nH]c2c(=O)[nH]1 [Guanine]	3.98 min
Nc1nc2c(ncn2C2OC(COP(=O)(O)OP(=O)(O)O)C(O)C2O)c(=O)[nH]1 (stereo not given) [Guanosine 5'-diphosphate]	9.21 min
Nc1nc2c(ncn2C2OC(COP(=O)(O)O)C(O)C2O)c(=O)[nH]1 (stereo not given) [Guanosine 5'-monophosphate]	7.36 min
Nc1nc2c(ncn2C2OC(CO)C(O)C2O)c(=O)[nH]1 (stereo not given) [Guanosine]	4.96 min
NC(=O)C(N)Cc1c[nH]c2ccccc12 (stereo not given) [H-Trp-NH2]	3.39 min
COc1ccc(C2CC(=O)c3c(O)cc(OC4OC(COC5OC(C)C(O)C(O)C5O)C(O)C(O)C4O)cc3O2)cc1O (stereo not given) [Hesperidin]	2.97 min
CCCCCC(=O)NCC(=O)O [Hexanoyl Glycine]	1.27 min
O=C(O)CNC(=O)c1ccccc1 [Hippuric acid]	1.59 min
NCCc1cnc[nH]1 [Histamine]	7.92 min
CC12CCC(=O)C=C1CCC1C2C(O)CC2(C)C1CCC2(O)C(=O)CO (stereo not given) [Hydrocortisone]	0.479 min
CC12C=CC(=O)C=C1CCC1C2C(O)CC2(C)C1CCC2(O)C(=O)CO (stereo not given) [Hydroretrocortine]	0.485 min
NCCS(=O)O [Hypotaurine]	6.07 min
O=c1[nH]cnc2nc[nH]c12 [Hypoxanthine]	2.29 min
O=C(O)Cc1cnc[nH]1 [Imidazole-4(5)-acetic Acid]	6.1 min
CN(C)CCCN1c2ccccc2CCc2ccccc21 [Imipramine]	0.939 min
NC(=O)Cc1c[nH]c2ccccc12 [Indole-3-acetamide]	0.475 min
O=C(O)c1c[nH]c2ccccc12 [Indole-3-carboxylic acid]	0.506 min
OCCc1c[nH]c2ccccc12 [Indole-3-ethanol]	1.31 min
O=C(O)C(=O)Cc1c[nH]c2ccccc12 [Indole-3-pyruvic acid]	0.455 min
O=c1[nH]cnc2c1ncn2C1OC(CO)C(O)C1O (stereo not given) [Inosine]	3.94 min

SMILES	LC retention time
CC(C)Oc1ccc2c(=O)c(-c3ccccc3)coc2c1 [Ipriflavone]	0.767 min
CCCCC1=NC2(CCCC2)C(=O)N1Cc1ccc(-c2ccccc2-c2nn[nH]n2)cc1 [Irbesartan]	0.475 min
O=C(O)c1ccncc1 [Isonicotinic acid]	3.05 min
Nc1nc2[nH]c(=O)cnc2c(=O)[nH]1 [Isoxanthopterin]	4.02 min
CC(C(=O)O)c1cccc(C(=O)c2ccccc2)c1 (stereo not given) [Ketoprofen]	0.455 min
O=C(c1ccccc1)c1ccc2n1CCC2C(=O)O (stereo not given) [Ketorolac]	0.567 min
O=c1cc(CO)occ1O [Kojic acid]	1.22 min
O=C(O)c1cc(=O)c2ccccc2[nH]1 [Kynurenic acid]	3.56 min
O=C(O)C1CCCCN1 (stereo not drawn) [L(-)-Pipecolinic acid]	5.85 min
N[C@@H](Cc1c[nH]c2ccc(O)cc12)C(=O)O [L-5-Hydroxytryptophan]	5.36 min
Cn1cncc1CC(NC(=O)CCN)C(=O)O [L-Anserine]	7.92 min
NC(N)=NCCC[C@H](N)C(=O)O [L-Arginine]	7.48 min
NC(=O)C[C@H](N)C(=O)O [L-Asparagine]	6.65 min
C[N+](C)(C)C[C@H](O)CC(=O)[O-] [L-Carnitine]	6.22 min
NCCC(=O)NC(Cc1cnc[nH]1)C(=O)O [L-Carnosine]	7.75 min
NC(=O)NCCC[C@H](N)C(=O)O [L-Citrulline]	6.76 min
N[C@@H](CS(=O)(=O)O)C(=O)O [L-Cysteic acid]	6.79 min
N[C@@H](CSSC[C@H](N)C(=O)O)C(=O)O [L-Cystine]	8.16 min
N[C@@H](Cc1ccc(O)c(O)c1)C(=O)O [L-Dopa]	6.06 min
NC(=O)CC[C@H](N)C(=O)O [L-Glutamine]	6.54 min
NC(CCC(=O)NC(CSSCC(NC(=O)CCC(N)C(=O)O)C(=O)NCC(=O)O)C(=O)NCC(=O)O)C(=O)O [L-Glutathione oxidized]	8.69 min
NC(CCC(=O)NC(CS)C(=O)NCC(=O)O)C(=O)O [L-Glutathione reduced]	7.03 min
N[C@@H](Cc1cnc[nH]1)C(=O)O [L-Histidine]	7.73 min
N[C@H](CO)Cc1cnc[nH]1 [L-Histidinol]	7.05 min

SMILES	LC retention time
NC(N)=NCCCC[C@H](N)C(=O)O [L-Homoarginine]	7.39 min
NC(=O)NCCCC[C@H](N)C(=O)O [L-Homocitrulline]	6.59 min
N[C@@H](CCSSCC[C@H](N)C(=O)O)C(=O)O [L-Homocystine]	7.57 min
N[C@@H](CCO)C(=O)O [L-Homoserine]	6.32 min
Nc1ccccc1C(=O)CC(N)C(=O)O [L-Kynurenine]	4.67 min
CC(C)C[C@H](N)C(=O)O [L-Leucine]	5.01 min
CC(C)C[C@H](N)C(=O)N[C@@H](C)C(=O)O [L-Leucyl-L-alanine]	5.82 min
NCCCC[C@H](N)C(=O)O [L-Lysine]	7.67 min
CSCC[C@H](N)C(=O)O [L-Methionine]	5.97 min
CN1CCCC1c1cccnc1 [L-Nicotine]	3.88 min
CCCC[C@H](N)C(=O)O [L-Norleucine]	4.99 min
CCC[C@H](N)C(=O)O [L-Norvaline]	5.65 min
N[C@@H](Cc1ccccc1)C(=O)O [L-Phenylalanine]	4.83 min
O=C1CC[C@@H](C(=O)O)N1 [L-Pyroglutamic acid]	6.81 min
N[C@@H](CO)C(=O)O [L-Serine]	6.56 min
C[C@@H](O)[C@H](N)C(=O)O [L-Threonine]	6.22 min
N[C@@H](Cc1ccc(O)cc1)C(=O)O [L-Tyrosine]	5.62 min
CC(C)[C@H](N)C(=O)O [L-Valine]	5.92 min
OCC1OC(OC2C(CO)OC(O)(CO)C2O)C(O)C(O)C1O (stereo not given) [Lactulose]	6.6 min
Cc1c(OCC(F)(F)F)ccnc1CS(=O)c1nc2ccccc2[nH]1 (stereo not given) [Lansoprazole]	0.475 min
CCCCCCCCCCCCOC(=O)c1cc(O)c(O)c(O)c1 [Lauryl gallate]	0.455 min
CC(=O)CCC(=O)O [Levulinic acid]	0.421 min
NCCCCC(NC(CCc1ccccc1)C(=O)O)C(=O)N1CCCC1C(=O)O (stereo not given) [Lisinopril]	6.87 min
